Reference: ChEMBL document CHEMBL1201862, “PubChem BioAssay data set” (2004)
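How tested: cells in 96-well plates exposed to compound for 48 hours at five concentrations. GI50: concentration for 50% inhibition of growth.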 The source made the active and inactive calls. No stated cut-off is given here; in the data, active = GI50 up to about 1.1 µM and inactive = higher.

Assays:
Experiment in all cases: NCI-60 cell line screen, 48 h
DLD-1 = tested on: DLD-1
DMS-273 = tested on: DMS-273
LXFL 529 = tested on: LXFL 529
RXF 631 = tested on: RXF 631
SNB-78 = tested on: SNB-78
XF498 = tested on: XF498
HOP-18 = tested on: HOP-18
KM-20L2 = tested on: KM-20L2
M19-MEL = tested on: M19-MEL

SMILES | GI50 (DLD-1) | GI50 (DMS-273) | GI50 (LXFL 529) | GI50 (RXF 631) | GI50 (SNB-78) | GI50 (XF498) | GI50 (HOP-18) | GI50 (KM-20L2) | GI50 (M19-MEL)
O=C(O)C(SC(=S)c1ccc(C(=S)SC(C(=O)O)c2ccccc2)cc1)c1ccccc1 (stereo not given) | > 100 µM (inactive) | 47.2 µM (inactive) | 50.8 µM (inactive) | > 100 µM (inactive) | > 100 µM (inactive) | > 100 µM (inactive) | – | – | –
Cc1c2ccncc2c(C)c2c1[nH]c1ccc(OCCN(C)C)cc12 | 0.0893 µM (active) | 0.0998 µM (active) | – | – | 1.13 µM (inactive) | 0.807 µM (active) | 0.598 µM (active) | 0.113 µM (active) | 0.582 µM (active)
CC1SC2=NC3=C(c4ccccc4C3=O)C(c3ccccc3Cl)N2C1=O (stereo not given) | > 100 µM (inactive) | > 100 µM (inactive) | > 100 µM (inactive) | > 100 µM (inactive) | – | > 100 µM (inactive) | – | > 100 µM (inactive) | > 100 µM (inactive)
COc1cc(C(=O)CC2OC(=O)C(Cl)=C2Cl)ccc1Cl (stereo not given) | > 100 µM (inactive) | > 100 µM (inactive) | > 100 µM (inactive) | > 100 µM (inactive) | > 100 µM (inactive) | > 100 µM (inactive) | > 100 µM (inactive) | > 100 µM (inactive) | > 100 µM (inactive)
CC(C)=CCC/C(C)=C/CC/C(C)=C/C(O)c1ccccc1 (stereo not given) | 18.5 µM (inactive) | – | 17.8 µM (inactive) | 18 µM (inactive) | 22.6 µM (inactive) | – | – | 21.3 µM (inactive) | 18.3 µM (inactive)
COC1(O)c2cccc(Cl)c2C(=O)N1C1(C(N)=O)CCCCC1 (stereo not given) | > 100 µM (inactive) | > 100 µM (inactive) | – | – | > 100 µM (inactive) | > 100 µM (inactive) | > 100 µM (inactive) | > 100 µM (inactive) | > 100 µM (inactive)
CSc1nc2c(nc(N)n2C2OCC(O)C(O)C2O)c(=O)[nH]1 (stereo not given) | > 100 µM (inactive) | – | > 100 µM (inactive) | > 100 µM (inactive) | > 100 µM (inactive) | > 100 µM (inactive) | > 100 µM (inactive) | > 100 µM (inactive) | > 100 µM (inactive)
c1ccc(COc2cccc3ccc[n+](Cc4ccccc4)c23)cc1 | 11.5 µM (inactive) | 3.8 µM (inactive) | 3.62 µM (inactive) | 18.9 µM (inactive) | – | 11.2 µM (inactive) | 2.07 µM (inactive) | 4.12 µM (inactive) | 3.59 µM (inactive)
O=C(O)C1CC2C=CCC(C2)C1 (stereo not given) | > 100 µM (inactive) | > 100 µM (inactive) | > 100 µM (inactive) | – | > 100 µM (inactive) | > 100 µM (inactive) | > 100 µM (inactive) | > 100 µM (inactive) | > 100 µM (inactive)
CC(C)OP(=O)(OC(C)C)/C(F)=N/Nc1ccc([N+](=O)[O-])cc1 | > 100 µM (inactive) | > 100 µM (inactive) | > 100 µM (inactive) | – | – | > 100 µM (inactive) | – | > 100 µM (inactive) | > 100 µM (inactive)
C1=CCN(c2ccccc2)CC1 | 15.5 µM (inactive) | > 100 µM (inactive) | 18.6 µM (inactive) | > 100 µM (inactive) | 29.8 µM (inactive) | 17.1 µM (inactive) | 63.5 µM (inactive) | 55.6 µM (inactive) | –
